Assay results as given in patent publication US20200055835A1, “USE OF TRICYCLIC SESQUITERPENE LACTONES IN THE TREATMENT OF OBESITY AND RELATED DISEASES AND NON-THERAPEUTIC TREATABLE CONDITIONS” (NEEM BIOTECH LTD., priority 2010, published 2020).

Key:
[1] = test system: Mealworm (Tenebrio molitor); conditions: cited from earlier work
[2] = Feeding experiment: body weight and body fat (DEXA) in rats; assay type: in vivo, Sprague-Dawley (SD) rats; conditions: high fat diet (34% fat), 0.1% by weight in chow, 8 weeks, male SD rats
Experimental: For the present experiments, the compound to be tested is added to the feed of the individuals. This is beneficial against enforcement because it allows a validation of the acceptance of the test compounds. The experiments are performed with negative control and are correlated to a commercial slimming product.
Cynaropicrin is tested using six weeks old, none-adult, male Sprague-Dawley (SD) rats (Charles Rivers, Sulzfeld, Germany). Cynaropicrin is mixed with the chow (ssniff Spezial-diäten GmbH, Soest, Germany) to a final concentration of 0.1% by weight and fed for 8 weeks in two different treatment regimes: • Balanced diet (standardised to 4% fat) • High fat diet (standardised to 34% fat)
Controls obtain the same diet without Cynaropicrin or other anti-obesity additives.
Body weight is studied and analysed every week, body fat and mineral bone density are analysed by DEXA (scanner, see Example 3) in week 0, in week 4 and at the last day of the study in week 8. Furthermore, the white body fat weight is determined after removal of the tissue at the end of the feeding study in week 8. For the DEXA measurements the same apparatuses and methodology are used as described in example 3.
The GE Lunar Piximus2 DEXA scanner (GE Healthcare, Munich, Germany) gives accurate information on differences in body composition in mice (see Nagy, T R and Clair, A-L. Precision and accuracy of dual-energy X-ray absorptiometry for determining in vivo body composition in mice. Obesity Res. 2000; 8:392-398; Brommage Am J Physiol Endocrinol Metab 285: E454-E459, 2003). Validation and calibration of DEXA body composition in mice; Sarah L. Johnston, Wendy L. Peacock, Lynn M. Bell, Michel Lonchampt, and John R. Speakman, Obesity Research 2005 13 (9), 1558). One scanning procedure takes up to five minutes per individual and provides data on fat mass, lean mass, bone mineral content and bone mineral density. The method is validated against Soxhlet (SOX) fat extraction in mice and a strong correlation (r 2>0.95) between fatDEXA and fatSOX is determined (published information).
As a control experiment within the high fat diet, epigallocatechin-3-gallate (EGCG, Chengdu Purification Technology Development Co. Ltd, Chengdu, China) in pure form is used as the standard for comparison of potency and differentiation as well as benchmark against competing compounds or formulations against obesity. […] EGCG is marketed as a functional food ingredient claiming an anti-obesity effect (Wolfram, S et al. Mol Nutr Food Res 2006; 50(2):176-87; Wolfram, S et al. Ann Nutr Metab 2005; 49(1):54-6, Klaus, S et al. Int J Obes 2005; 29(6):615-23; Hill, A M et al. J Am Coil Nutr. 2007; 26(4):396S-402S). The final concentration of EGCG used is 0.1%, too.

[3] = Pathological parameters: macroscopic organ inspection and kidney histo-pathology; assay type: in vivo; conditions: rat feeding study
Experimental: Main organs are analysed macroscopically for safety reasons and to investigate the effects of the different diets on these organs (e.g. induction of […] (“fatty”) livers etc.). After organ removal, macroscopic inspections of e.g. heart, kidneys; GI tract, spleen, liver are performed.

[4] = Clinical blood chemistry of the rat study; assay type: in vivo; conditions: rats under high fat (HF) diet
Experimental: The following parameters are involved in energy metabolism and thereby related to the metabolic syndrome. They are determined from blood samples taken in week 1; 4; and 8 of the rat study: Total cholesterol levels; HDL, LDL, TG (triglycerides), and glucose. Furthermore, the activity of liver enzymes such as ALT (alanin-aminotransferase), AST (aspartat-aminotransferase), and AP (alkaline phosphatase), as well as the concentration of Bilirubin, Albumin, Creatin Kinase, and electrolytes (Na+; K+; Ca++; Cl−) are determined as safety markers to exclude any toxic effects such as e.g. liver damage.
Blood samples are taken from the sublingual vein and collected in Li-Heparin coated vials. The blood samples are stored on ice for a short period of time before it is centrifuged for 15 minutes at 8° C. and 3500 rpm. The supernatant plasma is transferred in a reaction tube and stored at −80° C. until clinical chemistry measurements are performed. All measurements are conducted using an Olympus AU 400 at the gene centre of the LMU Munich, working group of Prof. Wolf. Statistical calculations are performed with Statistika (Statsoft (Europe) GmbH, Hamburg, Germany) und Sigma Stat (Jandel Scientific, San Raphael, Calif., USA).

[5] = olive oil-loaded mice, 6 hours; cited from earlier work

Molecule | antifeeding activity [1] | larval growth [1] | lipid levels in blood [1] | body fat accumulation (DEXA) in comparison to the control groups [2] | body weight accumulation in comparison to the control groups [2] | serum TG, long term [5] | other results
C=C1CC(O)C2C(=C)C(=O)OC2C2C(C)C(=O)CC12 (centres unmarked) [Grossheimin, 4-hydroxy-9-methyl-3,6-dimethylene-3a,4,5,6a,7,9,9a,9b-octahydroazuleno[5,4-d]furan-2,8-dione] | no anti-feeding | inhibition of larval growth | no effect | – | – | – | absorption of digested food constituents [1]: little decrease; efficiency in digesting [1]: little decrease
C=C(CO)C(=O)OC1CC(=C)C2CC(O)C(=C)C2C2OC(=O)C(=C)C12 (centres unmarked) [Cynaropicrin, (8-hydroxy-3,6,9-trimethylidene-2-oxo-3a,4,5,6a,7,8,9a, 9b-octahydroazuleno[4,5-b]furan-4-yl) 2-(hydroxymethyl)prop-2-enoate] | – | – | – | reduced body fat accumulation | reduced body weight accumulation | increase | macroscopic inspection of main organs (heart, kidneys, GI tract, spleen, liver) ([3]; after organ removal): no significant alterations; histo-pathological analysis of the kidneys (morphology and function) [3]: does not result in any observation of an adverse effect; total cholesterol:HDL/LDL ratio compared to the control group (HF only) [4]: improved
C=C1C(=O)O[C@H]2[C@H]1[C@@H](OC(=O)[C@]1(C)CO1)CC(=C)[C@@H]1C[C@H](O)[C@]3(CO3)[C@H]21 [repin, reference compound] | antifeeding activity | inhibition of larval growth | no effect | – | – | – | –
C=C(C)C(=O)O[C@H]1CC(=C)[C@@H]2C[C@H](O)C(=C)[C@@H]2[C@H]2OC(=O)C(=C)[C@@H]21 [aguerine B, reference compound] | – | – | – | – | – | increase | –
epigallocatechin-3-gallate [EGCG, reference compound] | – | – | – | No effects | No effects | – | –
